Assay results published in PubChem BioAssay (NCI).
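96-well plates; 48 h exposure; 5 concentrations. Endpoints by linear interpolation between flanking doses. Not reached: highest tested concentration assigned. Abbreviation: GI50, concentration required for 50% inhibition of growth. TGI denotes the concentration required for complete inhibition of growth.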

What was measured:
Experiment in all cases: growth of human tumour cells (NCI), 48 h
[1] = test system: 786-0 renal
[2] = test system: A498 renal
[3] = test system: A549 NSCLC
[4] = test system: ACHN renal
[5] = test system: BT-549 breast
[6] = test system: CAKI-1 renal
[7] = test system: CCRF-CEM leukemia
[8] = test system: COLO 205 colon
[9] = test system: DU-145 prostate
[10] = test system: EKVX NSCLC
[11] = test system: HCC-2998 colon
[12] = test system: HCT-116 colon
[13] = test system: HCT-15 colon
[14] = test system: HL-60(TB) leukemia
[15] = test system: HOP-62 NSCLC
[16] = test system: HOP-92 NSCLC
[17] = test system: HS 578T breast
[18] = test system: HT29 colon
[19] = test system: IGROV1 ovarian
[20] = test system: K-562 leukemia
[21] = test system: KM12 colon
[22] = test system: LOX IMVI melanoma
[23] = test system: M14 melanoma
[24] = test system: MALME-3M melanoma
[25] = test system: MCF7 breast
[26] = test system: MDA-MB-231 breast
[27] = test system: MDA-MB-435
[28] = test system: MOLT-4 leukemia
[29] = test system: NCI-H226 lung
[30] = test system: NCI-H23 lung
[31] = test system: NCI-H460 lung
[32] = test system: NCI-H522 lung
[33] = test system: NCI/ADR-RES ovarian
[34] = test system: OVCAR-4 ovarian
[35] = test system: OVCAR-5 ovarian
[36] = test system: OVCAR-8 ovarian
[37] = test system: PC-3 prostate
[38] = test system: RPMI-8226 leukemia
[39] = test system: RXF 393 renal
[40] = test system: SF-268 CNS
[41] = test system: SF-295 CNS
[42] = test system: SF-539 CNS
[43] = test system: SK-MEL-2 melanoma
[44] = test system: SK-MEL-28 melanoma
[45] = test system: SK-MEL-5 melanoma
[46] = test system: SK-OV-3 ovarian
[47] = test system: SN12C renal
[48] = test system: SNB-19 CNS
[49] = test system: SNB-75 CNS
[50] = test system: SR leukemia
[51] = test system: SW-620 colon
[52] = test system: T-47D breast
[53] = test system: TK-10 renal
[54] = test system: U251 CNS
[55] = test system: UACC-257 melanoma
[56] = test system: UACC-62 melanoma
[57] = test system: UO-31 renal

Work on Cn1ccnc1C(=O)/C=C/c1ccc(NC(=O)c2ccc(F)cc2)cc1 yielded a GI50 [1] of 6.82 µM, a TGI [1] greater than 33.3 µM and a GI50 [2] of 5.68 µM. For the same compound, the TGI [2] was 17.1 µM, the GI50 [3] was 6.75 µM and the TGI [3] was greater than 33.3 µM. For the same compound, the GI50 [4] was 4.85 µM, the TGI [4] was 11.8 µM and the GI50 [5] was 1.53 µM. For the same compound, the TGI [5] was 24.7 µM, the GI50 [6] was 1.63 µM and the TGI [6] was greater than 33.3 µM. For the same compound, the GI50 [7] was 1.46 µM, the TGI [7] was greater than 33.3 µM and the GI50 [8] was 3.39 µM. For the same compound, the TGI [8] was 17.8 µM, the GI50 [9] was 1.33 µM and the TGI [9] was greater than 33.3 µM. For the same compound, the GI50 [10] was 6.27 µM, the TGI [10] was greater than 33.3 µM and the GI50 [11] was 6.99 µM. It also gave a TGI [11] greater than 33.3 µM, a GI50 [12] of 1.47 µM and a TGI [12] of 12.9 µM. The GI50 [13] was 1.38 µM, the TGI [13] was 12.7 µM and the GI50 [14] was 2.9 µM. The TGI [14] was 31.8 µM, the GI50 [15] was 5.39 µM and the TGI [15] was 26.8 µM. For the same compound, the GI50 [16] was 8.15 µM, the TGI [16] was greater than 33.3 µM and the GI50 [17] was 7.06 µM. The TGI [17] was greater than 33.3 µM, the GI50 [18] was 2.22 µM and the TGI [18] was greater than 33.3 µM. For the same compound, the GI50 [19] was 3.72 µM, the TGI [19] was greater than 33.3 µM and the GI50 [20] was 1.1 µM. The TGI [20] was greater than 33.3 µM, the GI50 [21] was 1.22 µM and the TGI [21] was 10.9 µM. For the same compound, the GI50 [22] was 1.31 µM, the TGI [22] was 5.55 µM and the GI50 [23] was 8.52 µM. The TGI [23] was greater than 33.3 µM, the GI50 [24] was 18.1 µM and the TGI [24] was greater than 33.3 µM. For the same compound, the GI50 [25] was 1.64 µM, the TGI [25] was greater than 33.3 µM and the GI50 [26] was 6.54 µM. It also gave a TGI [26] greater than 33.3 µM, a GI50 [27] of 3.84 µM and a TGI [27] greater than 33.3 µM. The GI50 [28] was 6.36 µM, the TGI [28] was greater than 33.3 µM and the GI50 [29] was 4.76 µM. The TGI [29] was greater than 33.3 µM, the GI50 [30] was 5.89 µM and the TGI [30] was greater than 33.3 µM. The GI50 [31] was 1.79 µM, the TGI [31] was 7.85 µM and the GI50 [32] was 5.52 µM. For the same compound, the TGI [32] was 14.2 µM, the GI50 [33] was 5.28 µM and the TGI [33] was greater than 33.3 µM. For the same compound, the GI50 [34] was 6.37 µM, the TGI [34] was greater than 33.3 µM and the GI50 [35] was 6.3 µM. It also gave a TGI [35] greater than 33.3 µM, a GI50 [36] of 5.88 µM and a TGI [36] greater than 33.3 µM. The GI50 [37] was 5 µM, the TGI [37] was greater than 33.3 µM and the GI50 [38] was 1.15 µM. It also gave a TGI [38] of 12.3 µM, a GI50 [39] of 3.33 µM and a TGI [39] of 15.3 µM. The GI50 [40] was 4.94 µM, the TGI [40] was greater than 33.3 µM and the GI50 [41] was 8.15 µM. The TGI [41] was greater than 33.3 µM, the GI50 [42] was 2.5 µM and the TGI [42] was 10.5 µM. The GI50 [43] was 7.96 µM, the TGI [43] was greater than 33.3 µM and the GI50 [44] was 10.1 µM. It also gave a TGI [44] greater than 33.3 µM, a GI50 [45] of 17.6 µM and a TGI [45] greater than 33.3 µM. For the same compound, the GI50 [46] was 8.29 µM, the TGI [46] was greater than 33.3 µM and the GI50 [47] was 6.56 µM. It also gave a TGI [47] greater than 33.3 µM, a GI50 [48] of 4.96 µM and a TGI [48] greater than 33.3 µM. The GI50 [49] was 1.23 µM, the TGI [49] was 28.7 µM and the GI50 [50] was 0.903 µM. It also gave a TGI [50] greater than 33.3 µM, a GI50 [51] of 1.39 µM and a TGI [51] of 8.51 µM. For the same compound, the GI50 [52] was 2.02 µM, the TGI [52] was greater than 33.3 µM and the GI50 [53] was 10.3 µM. The TGI [53] was greater than 33.3 µM, the GI50 [54] was 2.92 µM and the TGI [54] was greater than 33.3 µM. For the same compound, the GI50 [55] was 17.9 µM, the TGI [55] was greater than 33.3 µM and the GI50 [56] was 9.5 µM. It also gave a TGI [56] greater than 33.3 µM, a GI50 [57] of 3.43 µM and a TGI [57] greater than 33.3 µM.
